{"source": "patent US9675591B2", "about": "“Methods for treating seizure disorders and pain” (THE REGENTS OF THE UNIVERSITY OF CALIFORNIA, priority 2013, dated 2017)", "key": {"[1]": {"tested_on": "MES-induced seizures", "assay": "Maximal electroshock (MES) seizure test, rats (ASP, methylcellulose suspension)", "assay_type": "in vivo", "experimental": "(§1) SKA-19 was tested under the auspices of the National Institutes of Health's Anticonvulsant Screening Program (ASP). Experiments were performed in male albino CF (Carworth Farms) No. 1 mice or Sprague-Dawley rats according to the established protocols of the ASP (White et al., 2002). SKA-19 was suspended in 0.5% methylcellulose and administered in a volume that permits accuracy of dosage without excessively contributing to total body fluid (0.01 ml/g body weight for mice and 0.04 ml/10 g body weight for rats).\n(§2) Animals received an electrical stimulus of 0.2 s duration (50 mA in mice and 150 mA in rat at 60 Hz) delivered via corneal electrodes primed with an electrolyte solution containing 0.5% tetracaine. Animals were restrained by hand and released immediately after stimulation to permit observation of the seizure throughout its entire course. In the initial screens to identify anticonvulsant activity mice were tested at 30 minutes and 4 hours following doses of 3, 10, 30, 100 and 300 mg/kg of SKA-19 and rats tested at time intervals between 0.25 and 4 hours following a standard oral dose of 30 mg/kg. In the subsequent, more quantitative tests at least four doses of SKA-19 (n=8 per dose) were tested at the previously determined time of peak effect (TPE). Abolition of hindlimb tonic extension indicates the test compound's ability to inhibit MES-induced seizure spread. Tonic extension is considered abolished if the hind limbs are not fully extended at 180° with the body."}, "[2]": {"tested_on": "6-Hz psychomotor seizures", "assay": "6-Hz psychomotor seizure test (ASP)", "assay_type": "in vivo, mice", "settings": "Mus musculus, po, orally administered", "experimental": "Seizures characterized by a minimal clonic phase followed by stereotyped automatistic behaviors (jaw chomping and whisker movement) were induced in mice by a low frequency (6 Hz), long-duration (3 s) stimulus. These seizures resemble automatistic behavior in patients with complex partial seizures. At varying times (0.25, 0.5, 1, 2, and 4 h) after drug treatment, individual mice (four at each time point) were challenged with sufficient current (32 or 44 mA at 6 Hz for 3 s) delivered through corneal electrodes to elicit a psychomotor seizure. Animals not displaying this behavior are considered protected."}, "[3]": {"tested_on": "MES-induced seizures", "assay": "Maximal electroshock (MES) seizure test, mice (ASP, methylcellulose suspension)", "assay_type": "in vivo", "settings": "Mus musculus, ip; mice, i.p., methylcellulose suspension, time of peak effect (SKA-19: 2 h); read-out: ED50, seizure protection in the MES test", "experimental": "as §1, §2"}, "[4]": {"tested_on": "pentylenetetrazole-induced seizures", "assay": "Subcutaneous Metrazol seizure test (scMET)", "assay_type": "in vivo", "settings": "mouse, in vivo", "experimental": "A dose of subcutaneous pentylenetetrazole (Metrazole, MET) which induces convulsions in 97% of animals (CD97: 85 mg/kg mice or 56.4 mg/kg rats) was injected into a loose fold of skin at the neck. Animals were placed in isolation cages and observed for 30 min for the occurrence of clonic spasms persisting for at least 5 s."}, "[5]": {"tested_on": "MES-induced seizures", "assay": "MES seizure test, CF-1 mice, compounds given i.p. as solution", "assay_type": "in vivo", "experimental": "MES assays were performed at the Department of Neurology at the University of California with CF-1 mice. This study was approved by the University of California, Davis, Animal Use and Care Committee and conducted in accordance with the guidelines of Animal Use and Care of the National Institutes of Health and the University of California. For these assays, stock solutions of SKA-19 (5 mg/ml) were prepared in 5% CremophorEL (Sigma-Aldrich, St. Louis, Mo., USA) and 95% saline, diluted further with saline, and SKA-19 was administered i.p. in a volume of 10 ml/kg body weight. Animals were subjected to a 0.2-s, 60-Hz electrical stimulus through corneal electrodes (5 mm diameter stainless steel balls). The electroshock unit was adjusted to deliver a constant current of 50 mA. Immediately before stimulation, the corneal electrodes were wetted with saline to provide good electrical contact. Animals failing to show tonic hindlimb extension were scored as protected (Kokate et al., 1994).\nThe mouse maximal electroshock (MES) and 6 Hz seizure models were used. Motor toxicity was assessed using a modification of the horizontal screen test. ED50 values in the seizure models and TD50 values in the toxicity test were determined by nonlinear fitting of dose-response curves. […] Drugs solutions were injected intraperitoneally 10 min prior to administration of the electrical stimulus in a volume of 10 ml/kg body weight."}, "[6]": {"tested_on": "CA1 pyramidal neurons", "assay": "Hippocampal slice recordings", "assay_type": "cell-based, mouse", "settings": "10 μM, 1-s current injections (150 pA)", "experimental": "Brain slice preparation was approved by the University of California, Irvine, Institutional Animal Care and Use Committee. Male C57BL/6 J mice (postnatal day 23) were anesthetized with halothane, decapitated, and brains transferred to an ice-cold, sucrose artificial cerebral spinal fluid (ACSF; Sigma-Aldrich). Hippocampal slices (300 μm) were prepared using a Leica VT1200S vibrating blade microtome (Leica Microsystems Inc., Buffalo Grove, Ill.). Slices were incubated at 33° C. in oxygenated (95% O2, 5% CO2) standard ACSF containing the following (mM) for at least 1 h before recordings: 126 NaCl, 2.5 KCl, 1.25 NaHPO4, 1.2 MgSO4, 10 glucose, 1.2 CaCl2, and 26 NaHCO3. Slices were submerged and continuously perfused at 2 ml/min with oxygenated ACSF at 33° C. during the current-clamp experiments. Voltage-clamp experiments were performed in the same ACSF but with 1 mM tetraethylammonium chloride (Sigma-Aldrich) and 0.5 μM tetrodotoxin (Sigma-Aldrich) added. Pyramidal CA1 neurons were visualized and identified with an upright microscope (Zeiss Axioskop Plus; Zeiss Jena, Germany) with infrared differential interference contrast optics. Recording pipettes (2-5 MΩ) were filled with intracellular solution containing (in mM): 126 K-gluconate; 4 KCl; 10 HEPES; 2 Mg-adenosine triphosphate; 0.3 Tris-guanosine triphosphate; 10 phosphocreatine, pH 7.20, 270-290 mOsm. In the current-clamp mode, depolarizing current pulses were applied from a membrane potential of −65 mV to evoke tonic firing activity. In the voltage-clamp mode, neurons were held at −55 mV and KCa currents elicited by 50-ms voltage steps to 10 mV, applied every 10 s. SKA-19 or NS309 were perfused for 10 min into the bath to allow for equilibrium. Recordings were performed in the whole-cell mode using a MultiClamp 700B amplifier (Molecular Devices), […] and sampled at 20 kHz with a Digidata 1322A digitizer (Molecular Devices). Data were acquired and analyzed with pClamp 10.2 software (Molecular Devices)."}}}
{"compound": "Nc1nc2ccc(OC(F)(F)F)cc2s1", "note": "[riluzole, 2-amino-6-(trifluoromethoxy)benzothiazole, reference compound]", "values": [{"measurement": "protection from MES induced seizures, initial screen", "setting": "[1]; 30 mg/kg i.p.", "result": "completely protected"}, {"measurement": "ED50", "setting": "[1]; Rattus norvegicus, oral (SKA-19: 4 h time point), read-out: ED50, seizure protection in the MES test", "result": 2.64, "unit": "mg/kg"}, {"measurement": "ED50", "setting": "[2]; 32 mA, 0.5-h time point", "result": 10.1, "unit": "mg/kg"}, {"measurement": "ED50", "setting": "[2]; 44 mA, 1-h time point", "result": 11.5, "unit": "mg/kg"}, {"measurement": "ED50", "setting": "[3]", "result": 4.07, "unit": "mg/kg"}, {"measurement": "activity in the scMET test", "setting": "[4]", "result": "no significant activity"}, {"measurement": "duration of protection", "setting": "[5]; 10 mg/kg i.p. as solution", "result": "≤ 45", "unit": "min"}, {"measurement": "duration of protective activity", "setting": "[5]; MES test, 10 mg/kg i.p. as solution", "result": "< 1", "unit": "h"}, {"measurement": "ED50", "setting": "[5]; Mus musculus, ip, 10 min, i.p. as solution, 10 min time point, read-out: ED50, seizure protection in the MES test", "result": 5.37, "unit": "mg/kg"}, {"measurement": "onset of protection from seizures after application", "setting": "[5]; i.p. as solution", "result": "≤ 5", "unit": "min"}]}
{"compound": "NS309 [reference compound]", "values": [{"measurement": "termination of firing during the ongoing current train", "setting": "[6]", "result": "did not terminate firing"}, {"measurement": "effect on AP firing frequency", "setting": "[6]; holding potential -65 mV", "result": "reduced AP firing frequency"}]}
